Where two headings read alike, the source gives them in different places.
How the values were obtained:
Dopamine-D1 = Dopamine-D1 (Homo sapiens, UniProt P21728); test: Receptor binding Dopamine-D1; conditions: radioligand [3H]-SCH 23390, read-out: Ki(nM) Compound 1
Protocol: (§1) Receptor binding data were obtained by CEREP (128, rue Danton, 92500 Rueil-Malmaison, France) or at Solvay Pharmaceuticals B.V., using well documented standard procedures. Affinity for 5-HT1A receptors for instance, was determined by testing the ability of the compounds of the invention to displace [^3H]-2-(di-n-propylamino)-8-hydroxytetralin ([^3H]-8-OH-DPAT) from its specific binding sites in rat frontal cortex homogenates. This test is based on the method described by Gozlan et al. (Nature, 305, (1983), pages 140-142).
(§2) The binding data collected in the table below were either obtained by CEREP (128, rue Danton, 92500 Rueil-Malmaison, France) or at Solvay Pharmaceuticals B.V., using well documented standard procedures.

5-HT4 = 5-HT4 (Homo sapiens, UniProt Q13639); test: Receptor binding 5-HT4; conditions: radioligand [3H]-GR 113808, read-out: Ki(nM) Compound 1
5-HT4, sequence (Q13639 whole entry): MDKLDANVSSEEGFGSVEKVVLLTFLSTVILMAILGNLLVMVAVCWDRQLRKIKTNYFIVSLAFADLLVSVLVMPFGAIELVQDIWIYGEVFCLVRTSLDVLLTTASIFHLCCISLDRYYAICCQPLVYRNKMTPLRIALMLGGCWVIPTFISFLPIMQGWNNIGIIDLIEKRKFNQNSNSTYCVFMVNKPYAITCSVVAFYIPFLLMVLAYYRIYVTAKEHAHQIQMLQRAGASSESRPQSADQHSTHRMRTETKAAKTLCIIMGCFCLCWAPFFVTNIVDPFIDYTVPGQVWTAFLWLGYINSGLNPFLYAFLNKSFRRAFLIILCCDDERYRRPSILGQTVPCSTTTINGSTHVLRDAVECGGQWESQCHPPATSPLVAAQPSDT
Protocol: as §1, §2

Adenosine-A2A = Adenosine-A2A (Homo sapiens, UniProt P29274); test: Receptor binding Adenosine-A2A; conditions: radioligand [3H]-CGS 21680, read-out: Ki(nM) Compound 1
Adenosine-A2A, sequence (P29274 whole entry): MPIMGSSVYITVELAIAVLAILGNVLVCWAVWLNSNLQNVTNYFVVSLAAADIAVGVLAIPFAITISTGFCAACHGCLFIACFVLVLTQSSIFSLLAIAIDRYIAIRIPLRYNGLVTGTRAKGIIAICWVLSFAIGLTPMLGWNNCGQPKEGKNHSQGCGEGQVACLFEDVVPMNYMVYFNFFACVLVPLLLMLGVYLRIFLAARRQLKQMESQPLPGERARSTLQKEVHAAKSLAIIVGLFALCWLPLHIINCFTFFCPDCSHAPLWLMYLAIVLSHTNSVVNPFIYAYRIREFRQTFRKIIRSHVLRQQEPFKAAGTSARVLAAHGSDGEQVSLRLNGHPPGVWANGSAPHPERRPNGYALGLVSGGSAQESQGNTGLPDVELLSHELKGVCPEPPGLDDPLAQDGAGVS
Protocol: as §1, §2

β3-adrenergic = β3-adrenergic (Homo sapiens, UniProt P13945); test: Receptor binding β3-adrenergic; conditions: radioligand [125I]-iodocyanopindolol, read-out: Ki(nM) Compound 1
β3-adrenergic, sequence (P13945 whole entry): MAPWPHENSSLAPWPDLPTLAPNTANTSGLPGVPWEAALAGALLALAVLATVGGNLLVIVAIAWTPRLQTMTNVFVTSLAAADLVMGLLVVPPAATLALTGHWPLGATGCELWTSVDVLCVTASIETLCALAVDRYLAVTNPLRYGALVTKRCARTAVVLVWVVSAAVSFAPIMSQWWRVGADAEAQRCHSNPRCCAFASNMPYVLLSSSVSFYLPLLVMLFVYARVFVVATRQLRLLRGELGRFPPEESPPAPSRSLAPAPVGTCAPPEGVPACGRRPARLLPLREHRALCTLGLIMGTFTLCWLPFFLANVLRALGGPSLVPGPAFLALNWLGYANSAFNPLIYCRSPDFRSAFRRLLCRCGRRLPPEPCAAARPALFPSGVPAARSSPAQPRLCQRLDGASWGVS
Protocol: as §1, §2

5-HT1B = 5-HT1B (Rattus norvegicus, UniProt P28564); test: Receptor binding 5-HT1B; conditions: radioligand [125I]-cyanopindolol, read-out: Ki(nM) Compound 1
5-HT1B, sequence (P28564 whole entry): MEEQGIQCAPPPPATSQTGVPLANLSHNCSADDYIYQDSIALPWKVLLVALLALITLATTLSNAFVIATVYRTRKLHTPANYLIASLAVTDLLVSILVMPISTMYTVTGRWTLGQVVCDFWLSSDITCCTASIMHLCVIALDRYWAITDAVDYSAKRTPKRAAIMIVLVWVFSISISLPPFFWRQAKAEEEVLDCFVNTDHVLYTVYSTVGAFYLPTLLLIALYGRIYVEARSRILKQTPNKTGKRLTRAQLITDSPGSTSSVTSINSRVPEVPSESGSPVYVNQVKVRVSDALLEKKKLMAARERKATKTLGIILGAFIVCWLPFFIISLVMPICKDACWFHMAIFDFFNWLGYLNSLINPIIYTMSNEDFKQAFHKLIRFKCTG
Protocol: as §1, §2

5-HT2B = 5-HT2B (Homo sapiens, UniProt P41595); test: Receptor binding 5-HT2B; conditions: radioligand [3H]-LSD, read-out: Ki(nM) Compound 1
5-HT2B, sequence (P41595 whole entry): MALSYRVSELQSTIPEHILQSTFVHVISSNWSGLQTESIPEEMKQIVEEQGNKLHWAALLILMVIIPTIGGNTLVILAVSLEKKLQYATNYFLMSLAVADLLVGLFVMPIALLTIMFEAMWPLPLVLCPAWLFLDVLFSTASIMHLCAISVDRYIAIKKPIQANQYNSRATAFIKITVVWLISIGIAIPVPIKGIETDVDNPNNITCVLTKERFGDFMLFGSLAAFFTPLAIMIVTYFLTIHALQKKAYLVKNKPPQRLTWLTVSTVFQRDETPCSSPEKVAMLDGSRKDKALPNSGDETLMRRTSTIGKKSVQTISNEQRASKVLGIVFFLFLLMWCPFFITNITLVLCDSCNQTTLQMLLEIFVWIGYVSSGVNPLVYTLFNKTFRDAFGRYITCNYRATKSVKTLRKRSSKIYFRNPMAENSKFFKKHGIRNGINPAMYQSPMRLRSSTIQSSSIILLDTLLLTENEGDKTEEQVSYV
Protocol: as §1, §2

Interleukine-6 = Interleukine-6 (Homo sapiens, UniProt P08887); test: Receptor binding Interleukine-6; conditions: radioligand [125I]-interleukine-6, read-out: Ki(nM) Compound 1
Interleukine-6, sequence (P08887 20-468): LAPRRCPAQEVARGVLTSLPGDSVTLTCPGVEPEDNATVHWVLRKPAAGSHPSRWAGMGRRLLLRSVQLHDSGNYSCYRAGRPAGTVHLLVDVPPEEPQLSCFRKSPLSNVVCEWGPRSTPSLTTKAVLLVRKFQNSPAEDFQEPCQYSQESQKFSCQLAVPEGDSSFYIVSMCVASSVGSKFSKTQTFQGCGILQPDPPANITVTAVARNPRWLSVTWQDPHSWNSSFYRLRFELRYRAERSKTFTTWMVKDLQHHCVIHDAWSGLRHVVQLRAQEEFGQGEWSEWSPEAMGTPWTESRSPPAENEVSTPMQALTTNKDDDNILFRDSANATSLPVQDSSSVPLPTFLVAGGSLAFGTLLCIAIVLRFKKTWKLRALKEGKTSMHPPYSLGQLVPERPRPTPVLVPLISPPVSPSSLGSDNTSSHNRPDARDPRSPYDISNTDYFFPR
Protocol: as §1, §2

DBA/2 mice = test: Anticonvulsant activity: audiogenic seizures in DBA/2 mice; type: in vivo; conditions: for ED50: Mus musculus; for behavioural changes: all dosages tested
Source text: DBA/2 mice weighing 6-12 g (22-26 days old; either sex, Harlan Italy Correzzana, Milano, Italy) are housed in groups of 8-10 under a 12-h light/dark cycle (lights on at 7:00 a.m.) with food and water available ad libitum. The experimental protocol is approved by University of Catanzaro Ethical Committee. All procedures are in compliance with the Nationals Institutes of Health Guide for Care and Use of Laboratory Animals (Publication No. 85-23, revised 1985) and European Communities Council Directive of 24 Nov. 1986 (86/609 EEC).
The experiments are performed according to the method previously described by De Sarro et al. (1984), Eur. J. Pharmacol., 104, 55-60. Compounds of the invention or vehicle (controls) are given intraperitoneally (i.p.) and orally (p.o.) as freshly sonicated solutions in methylcellulose 1%. For the […]; pretreatment time at 30 and 60 min., For oral treatment, all animals are pretreated either at 30 or 60 min using the compounds of the invention at doses of 0.1, 0.3, 3, 6 and 10 mg/kg p.o. At least 10 mice per dose are used. After pretreatment time, each mouse is placed under a hemispheric perspex dome (58 cm in diameter) and 1 min is allowed for habituation and assessment of locomotor activity. Animals are challenged with a 12-16 kHz sinusoidal tone at 109 dB. Seizure response is assessed by two independent observers. The sound evoked behaviour is coded using the following scale: 0=no response, 1=wild running, 2=clonus, 3=tonic flexor and/or extensor; 4=respiratory arrest, on the basis of the concordant opinion of the observers. […] The maximum response is recorded for each animal. Rectal temperature is recorded immediately prior to auditory testing using an Elektrolaboratoriet thermometer type T.E.3. Behavioral changes are observed during the period between drug administration and auditory testing. In these experiments separate vehicle-treated and drug-treated groups are used at each pretreatment time (15 min-60 min). Percentage of mice showing wild running, clonic or tonic phase and the duration of anticonvulsant activity are compared to control group and statistically analyzed.
Statistical comparison between groups of control and drug-treated DBA/2 mice is made using Fisher's exact probability test (incidence of the seizure phases). The percentage incidence of each phase of the audiogenic seizure is determined for each drug. These values are plotted against the corresponding doses by a computer construction of the dose-effect curves for calculation of ED50 (with 95% confidence limits). The ED50 values for each compound are calculated using a computer program of the method of Litchfield and Wilcoxon (1949). At least 32 animals are used to calculate each ED50 value.
For systemic injections and oral administrations, all compounds are given intraperitoneally (0.1 ml/10 g of body weight of the mouse) as a freshly prepared solution in methylcellulose 1%. In order to avoid the light sensitivity, weighing and handling are carried out under sodium vapor lamps and the substances are protected from light during the experiments.

CGRP = CGRP (Homo sapiens, UniProt O60894+Q16602); test: Receptor binding CGRP; conditions: radioligand [125I]-CGRPa, read-out: Ki(nM) Compound 1
CGRP, sequence (Q16602 23-461): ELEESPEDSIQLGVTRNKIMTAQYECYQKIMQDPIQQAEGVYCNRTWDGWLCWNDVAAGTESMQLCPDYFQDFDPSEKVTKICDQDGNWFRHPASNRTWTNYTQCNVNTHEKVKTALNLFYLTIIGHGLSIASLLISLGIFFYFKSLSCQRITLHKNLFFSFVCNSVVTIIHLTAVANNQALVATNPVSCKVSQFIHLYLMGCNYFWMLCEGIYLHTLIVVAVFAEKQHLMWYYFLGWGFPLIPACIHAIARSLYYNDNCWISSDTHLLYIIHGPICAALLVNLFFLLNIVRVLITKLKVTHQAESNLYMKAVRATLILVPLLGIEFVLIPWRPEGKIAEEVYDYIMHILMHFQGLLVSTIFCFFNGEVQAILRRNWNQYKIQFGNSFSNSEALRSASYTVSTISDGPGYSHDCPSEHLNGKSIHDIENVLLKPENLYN
CGRP, sequence (O60894 27-148): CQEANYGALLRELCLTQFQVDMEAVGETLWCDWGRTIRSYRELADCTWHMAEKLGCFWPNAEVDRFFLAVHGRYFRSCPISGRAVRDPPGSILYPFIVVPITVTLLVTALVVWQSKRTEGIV
Protocol: as §1, §2

Dopamine-D1, sequence (P21728 whole entry): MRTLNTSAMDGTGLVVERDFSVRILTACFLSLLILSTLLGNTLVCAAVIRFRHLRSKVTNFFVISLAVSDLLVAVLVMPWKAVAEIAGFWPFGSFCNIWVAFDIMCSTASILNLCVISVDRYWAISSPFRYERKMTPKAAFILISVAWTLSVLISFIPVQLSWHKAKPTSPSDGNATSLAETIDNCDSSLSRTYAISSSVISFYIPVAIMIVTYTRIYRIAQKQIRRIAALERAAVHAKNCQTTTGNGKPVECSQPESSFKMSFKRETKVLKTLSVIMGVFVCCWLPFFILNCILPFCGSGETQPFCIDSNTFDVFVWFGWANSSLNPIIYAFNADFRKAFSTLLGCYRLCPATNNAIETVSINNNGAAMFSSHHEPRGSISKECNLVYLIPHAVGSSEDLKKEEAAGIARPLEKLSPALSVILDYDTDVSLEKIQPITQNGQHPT

SMILES: Nc1cc2cccc(N3CCNCC3)c2oc1=O [Compound 1, 3-amino-8-(1-piperazinyl)-2H-1-benzopyran-2-one]
- Ki (Dopamine-D1): > 1000 nM
- Ki (5-HT4): > 1000 nM
- Ki (Adenosine-A2A): > 1000 nM
- Ki (β3-adrenergic): > 1000 nM
- Ki (5-HT1B): 2 nM
- Ki (5-HT2B): 320 nM
- Ki (Interleukine-6): > 10000 nM
- ED50 (DBA/2 mice; ip, 0.5 h, read-out: ED50 Tonic extension, i.p. administration, 30 minutes after drug administration): 0.66 mg/kg
- ED50 (DBA/2 mice; ip, 0.5 h, i.p. administration, 30 minutes after drug administration, read-out: ED50 Clonic seizures): 3.7 mg/kg
- ED50 (DBA/2 mice; ip, 0.5 h, i.p. administration, 30 minutes after drug administration, read-out: ED50 Wild running): 39 mg/kg
- ED50 (DBA/2 mice; ip, 1 h, i.p. administration, 60 minutes after drug administration, read-out: ED50 Clonic seizures): 1.9 mg/kg
- ED50 (DBA/2 mice; ip, 1 h, i.p. administration, 60 minutes after drug administration, read-out: ED50 Tonic extension): 0.26 mg/kg
- ED50 (DBA/2 mice; ip, 1 h, i.p. administration, 60 minutes after drug administration, read-out: ED50 Wild running): 20.5 mg/kg
- ED50 (DBA/2 mice; po, 0.5 h, p.o. administration, 30 minutes after drug administration, read-out: ED50 Clonic seizures): 4.91 mg/kg
- ED50 (DBA/2 mice; po, 0.5 h, read-out: ED50 Tonic extension, p.o. administration, 30 minutes after drug administration): 1.19 mg/kg
- ED50 (DBA/2 mice; po, 1 h, p.o. administration, 60 minutes after drug administration, read-out: ED50 Clonic seizures): 1.34 mg/kg
- ED50 (DBA/2 mice; po, 1 h, p.o. administration, 60 minutes after drug administration, read-out: ED50 Tonic extension): 0.27 mg/kg
- behavioural changes (DBA/2 mice; i.p. administration): At none of the dosages tested
- behavioural changes (DBA/2 mice; oral administration): At none of the dosages tested
- Ki (CGRP): > 1000 nM
